Tested on: Rama 27 cells
Experiment: incorporation of [3H] thymidine into the DNA of Rama 27 cells (growth promoting / mitogenic assay)
Format: cell-based
Conditions: Rama 27 rat mammary fibroblast cell line
Protocol: The growth promoting activity of different milk types was determined by precipitating caseins and assaying the supernatants for their ability to stimulate the incorporation of [3H] thymidine into the DNA of Rama 27 cells by known methodology (Smith et al, 1984).
The protein fractions A,B,C, of the casein digest where assayed for their ability to stimulate the incorporation of [3H] thymidine into the DNA of Rama 27 cells exactly as described previously.
In table 1, * indicates one unit of activity is defined as the amount of protein required to produce half maximal stimulation compared with 1% FCS when added to R27 cells.

In the case of PDGF, the “growth promoting activity (incorporation of 3H-thymidine into DNA)” value is reported as “not significantly stimulated”.

— US6060448A, “Casein fragments having growth promoting activity” (Pepsyn Limited, priority 1995, dated 2000)
